Reference: patent EP4707280A1, “1,4-CINEOLE DERIVATIVE AND INTERMEDIATE THEREOF, HERBICIDE CONTAINING SAID DERIVATIVE AS ACTIVE INGREDIENT, METHOD FOR USING HERBICIDE, AND METHOD FOR PREPARING AGROCHEMICAL COMPOSITION” (HOKKO CHEMICAL INDUSTRY CO., LTD., priority 2023, dated 2024)

Experiments:
Type in all cases: in vivo
[1] = system: Echinochloa crus-galli var. formosensis; experiment: Test Example 1: herbicidal effect test by soil application in paddy rice; settings: 120 g active ingredient per 10 ares, applied immediately after sowing, flooded pots, 14 days after application; for pest or weed control at 1200 g/ha: Echinochloa crus-galli, soil, 336 h, read-out: weed inhibition rate
Procedure, shortened: (§1)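 Soil-applied test under flooded paddy conditions (~3 cm water) in a glass greenhouse. Seeds were sown shallow (0–1 cm, 30 per species), then compound was dripped in as diluted emulsifiable concentrate at 120 g a.i./10 a.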

[2] = system: Scirpus juncoides; experiment: as above; settings: 120 g active ingredient per 10 ares, applied immediately after sowing, flooded pots, 14 days after application; for pest or weed control at 1200 g/ha: Schoenoplectiella juncoides, soil, 336 h, read-out: weed inhibition rate
Procedure, shortened: as §1

[3] = system: Digitaria ciliaris; experiment: Test Example 4: herbicidal effect test by stem and leaf treatment in upland field; settings: Digitaria ciliaris; 120 g per 10 ares; sprayed seven days after sowing, upland soil; 14 days after application; read-out: weed inhibition rate
[4] = system: Echinochloa crus-galli; experiment: as above; settings: Echinochloa crus-galli; 120 g per 10 ares; sprayed seven days after sowing, upland soil; 14 days after application; read-out: weed inhibition rate
[5] = system: Echinochloa crus-galli var. formosensis; experiment: Test Example 5: herbicidal effect test by soil application in paddy rice (low dose); settings: Echinochloa crus-galli, soil, 336 h; 7.5 g per 10 ares; applied immediately after sowing, flooded pots; 14 days after application; read-out: weed inhibition rate
Procedure, shortened: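 7.5 g a.i./10 a applied by dropper into ~3 cm floodwater immediately post-sowing (seeds 0–1 cm, 30 per species; puddled fertilized paddy soil, glasshouse). Duplicates; day-14 inhibition %.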

[6] = system: Scirpus juncoides; experiment: as above; settings: Schoenoplectiella juncoides, 336 h, 7.5 g per 10 ares, applied immediately after sowing, flooded pots, 14 days after application, read-out: weed inhibition rate
Description: (§2) The present test was conducted in duplicate for each chemical concentration group, and the weed inhibition rate (%) was determined 14 days after chemical application using the following formula (Math. 1). [formula]
(§3) Wagner pots with an area of […] were filled with paddy soil, followed by addition of water and incorporation of chemical fertilizer (N:P:K = 16:16:16), after which puddling was performed. After that, seeds of Echinochloa crus-galli var. formosensis, broad-leaved weeds (Monochoria vaginalis), and Scirpus juncoides were sown at a depth of 0 cm to 1 cm, 30 seeds each. Immediately after sowing, the pots were flooded and a water depth of approximately 3 cm was maintained. Subsequent management was conducted in a glass greenhouse. Immediately thereafter, an emulsifiable concentrate prepared according to Formulation Example 5 using the compound shown below was diluted with water, and a specified amount of the diluted solution was applied by dropper. The amount of the active ingredient to be applied was equivalent to 7.5 g per 10 ares.
(§4) The present test was conducted in duplicate for each chemical concentration group, and the herbicidal effect was evaluated 14 days after chemical application using the same criteria as in Test Example 1.

[7] = system: Echinochloa crus-galli var. formosensis; experiment: Test Example 6: herbicidal effect test by application during growth period of paddy rice (low dose); settings: Echinochloa crus-galli; 7.5 g per 10 ares; applied seven days after sowing, flooded pots; 14 days after application; read-out: weed inhibition rate
Procedure, shortened: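 Low-dose water application, 7.5 g a.i. per 10 ares, given by dropper into flooded pots (about 3 cm depth) 7 days after sowing of 30 weed seeds each at 0–1 cm. Evaluation of inhibition (%) took place 14 days later, duplicate per rate.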

[8] = system: Monochoria vaginalis; experiment: Test Example 5: herbicidal effect test by soil application in paddy rice (low dose); settings: Pontederia vaginalis, 336 h, 7.5 g per 10 ares, applied immediately after sowing, flooded pots, 14 days after application, read-out: weed inhibition rate
Description: as §2, §3, §4

[9] = system: Digitaria ciliaris; experiment: Test Example 7: herbicidal effect test by soil application in upland field (low dose); settings: Digitaria ciliaris, 7.5 g per 10 ares, sprayed one day after sowing, 14 days after application, read-out: weed inhibition rate
Procedure, shortened: (§5)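 Duplicate pots of alluvial loam, seeds incorporated in the surface 1 cm. Soil surface sprayed 1 d after sowing (EC in water, 100 L/10 a; 7.5 g a.i./10 a). Endpoint: % inhibition, day 14.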

[10] = system: Echinochloa crus-galli; experiment: as above; settings: Echinochloa crus-galli, 7.5 g per 10 ares, sprayed one day after sowing, 14 days after application, read-out: weed inhibition rate
Procedure, shortened: as §5

CC(C)CC1C[C@]2(C)O[C@@]1(C(C)C)C[C@H]2OCc1ccccc1F (stereo partly drawn) [1-915, (1S,2R,4R)-2-((2-fluorobenzyl)oxy)-5-isobutyl-4-isopropyl-1-methyl-7-oxabicyclo[2.2.1]heptane]
≥ 80%: pest or weed control at 1200 g/ha [1] | pest or weed control at 1200 g/ha [2] | inhibition at 1200 g/ha [3] | inhibition at 1200 g/ha [4] | inhibition at 75 g/ha [5] | inhibition at 75 g/ha [6] | inhibition at 75 g/ha [7]

Cc1ccccc1CO[C@@H]1C[C@]2(C(C)C)O[C@@]1(C)C/C2=N\O [2-191, (1R,4S,5R,E)-1-isopropyl-4-methyl-5-((2-methylbenzyl)oxy)-7-oxabicyclo[2.2.1]heptan-2-one oxime]
≥ 80%: pest or weed control at 1200 g/ha [1] | pest or weed control at 1200 g/ha [2] | inhibition at 1200 g/ha [3] | inhibition at 1200 g/ha [4] | inhibition at 75 g/ha [5] | inhibition at 75 g/ha [8] | inhibition at 75 g/ha [7] | inhibition at 75 g/ha [9] | inhibition at 75 g/ha [10]

CC(C)[C@]12C[C@@H](OCc3c(Cl)cccc3Cl)[C@](C)(C[C@@H]1Br)O2 [1-712, (1S,2R,4R,5S)-5-bromo-2-[(2,6-dichlorophenyl)methoxy]-1-methyl-4-isopropyl-7-oxabicyclo[2.2.1]heptane]
≥ 80%: pest or weed control at 1200 g/ha [1] | pest or weed control at 1200 g/ha [2] | inhibition at 1200 g/ha [3] | inhibition at 1200 g/ha [4] | inhibition at 75 g/ha [5] | inhibition at 75 g/ha [8] | inhibition at 75 g/ha [7] | inhibition at 75 g/ha [9] | inhibition at 75 g/ha [10]

CC(C)[C@]12C=C[C@](C)(O1)C(OCc1ccccc1F)C2 (mixture of isomers) [3-5, (1R,4S,SR)-5-[(2-fluorophenyl)methoxy]-4-methyl-1-isopropyl-7-oxabicyclo[2.2.1]hept-2-ene]
≥ 80%: pest or weed control at 1200 g/ha [1] | pest or weed control at 1200 g/ha [2] | inhibition at 1200 g/ha [3] | inhibition at 1200 g/ha [4] | inhibition at 75 g/ha [5] | inhibition at 75 g/ha [6] | inhibition at 75 g/ha [7] | inhibition at 75 g/ha [9] | inhibition at 75 g/ha [10]

CC(C)[C@]12C[C@@H](OCc3c(F)cccc3F)[C@](C)(C[C@@H]1O)O2 [1-41, (1R,2S,4S,5R)-5-((2,6-difluorobenzyl)oxy)-1-isopropyl-4-methyl-7-oxabicyclo[2,2,1]heptan-2-ol]
≥ 80%: pest or weed control at 1200 g/ha [1] | pest or weed control at 1200 g/ha [2] | inhibition at 1200 g/ha [3] | inhibition at 1200 g/ha [4] | inhibition at 75 g/ha [5] | inhibition at 75 g/ha [6] | inhibition at 75 g/ha [7] | inhibition at 75 g/ha [9] | inhibition at 75 g/ha [10]

CC(C)[C@]12C[C@@H](OCc3ccccc3F)[C@](C)(C/C1=N\O)O2 [2-197, (1R,4S,5R,E)-5-((2-fluorobenzyl)oxy)-1-isopropyl-4-methyl-7-oxabicyclo[2.2.1]heptan-2-one oxime]
≥ 80%: pest or weed control at 1200 g/ha [1] | pest or weed control at 1200 g/ha [2] | inhibition at 1200 g/ha [3] | inhibition at 1200 g/ha [4] | inhibition at 75 g/ha [5] | inhibition at 75 g/ha [8] | inhibition at 75 g/ha [7] | inhibition at 75 g/ha [9] | inhibition at 75 g/ha [10]

CC(C)[C@]12C[C@@H](OCc3ccccc3F)[C@](C)(C[C@@H]1Br)O2 [1-19, (1S,2R,4R,5S)-5-bromo-2-[(2-fluorophenyl)methoxy]-1-methyl-4-isopropyl-7-oxabicyclo[2.2.1]heptane]
≥ 80%: pest or weed control at 1200 g/ha [1] | pest or weed control at 1200 g/ha [2] | inhibition at 1200 g/ha [3] | inhibition at 1200 g/ha [4] | inhibition at 75 g/ha [5] | inhibition at 75 g/ha [6] | inhibition at 75 g/ha [7] | inhibition at 75 g/ha [9] | inhibition at 75 g/ha [10]

CC(C)[C@]12C[C@@H](OCc3ccccc3F)[C@](C)(C[C@@H]1OCc1ccccc1F)O2 [1-603, (1S,2R,4R,5S)-2,5-bis[(2-fluorophenyl)methoxy]-1-methyl-4-isopropyl-7-oxabicyclo[2.2.1]heptane]
≥ 80%: pest or weed control at 1200 g/ha [1] | pest or weed control at 1200 g/ha [2] | inhibition at 1200 g/ha [3] | inhibition at 1200 g/ha [4] | inhibition at 75 g/ha [5] | inhibition at 75 g/ha [8] | inhibition at 75 g/ha [7]

C=CCO[C@H]1C[C@]2(C)O[C@@]1(C(C)C)C[C@H]2OCc1ccccc1F [1-1602, (1S,2R,4R,5S)-2-[(2-fluorophenyl)methoxy]-1-methyl-4-isopropyl-5-prop-2-enoxy-7-oxabicyclo[2.2.1]heptane]
≥ 80%: pest or weed control at 1200 g/ha [1] | pest or weed control at 1200 g/ha [2] | inhibition at 1200 g/ha [3] | inhibition at 1200 g/ha [4] | inhibition at 75 g/ha [5] | inhibition at 75 g/ha [6] | inhibition at 75 g/ha [7] | inhibition at 75 g/ha [9] | inhibition at 75 g/ha [10]

CC(C)[C@]12C[C@@H](OCc3c(F)cccc3F)[C@](C)(C[C@@H]1F)O2 [1-7, (1S,2R,4R,5S)-2-((2,6-difluorobenzyl)oxy)-5-fluoro-4-isopropyl-1-methyl-7-oxabicyclo[2.2.1]heptane]
≥ 80%: pest or weed control at 1200 g/ha [1] | pest or weed control at 1200 g/ha [2] | inhibition at 1200 g/ha [3] | inhibition at 1200 g/ha [4] | inhibition at 75 g/ha [5] | inhibition at 75 g/ha [6] | inhibition at 75 g/ha [7] | inhibition at 75 g/ha [9] | inhibition at 75 g/ha [10]

CC(C)[C@]12C[C@@H](OCc3ccccc3Br)[C@](C)(C[C@@H]1Br)O2 [1-694, (1S,2R,4R,5S)-5-bromo-2-[(2-bromophenyl)methoxy]-1-methyl-4-isopropyl-7-oxabicyclo[2.2.1]heptane]
≥ 80%: pest or weed control at 1200 g/ha [1] | inhibition at 1200 g/ha [4] | inhibition at 75 g/ha [5] | inhibition at 75 g/ha [8] | inhibition at 75 g/ha [7] | inhibition at 75 g/ha [9] | inhibition at 75 g/ha [10]

CC(C)[C@]12C[C@@H](OCc3ccccc3Cl)[C@](C)(CC1=O)O2 [2-11, (1R,4S,5R)-5-((2-chlorobenzyl)oxy)-1-isopropyl-4-methyl-7-oxabicyclo[2.2.1]heptan-2-one]
≥ 80%: pest or weed control at 1200 g/ha [1] | pest or weed control at 1200 g/ha [2] | inhibition at 1200 g/ha [3] | inhibition at 1200 g/ha [4] | inhibition at 75 g/ha [5] | inhibition at 75 g/ha [6] | inhibition at 75 g/ha [7] | inhibition at 75 g/ha [9] | inhibition at 75 g/ha [10]

CO[C@H]1C[C@]2(C)O[C@@]1(C(C)C)C[C@H]2OCc1ccccc1C [1-151, (1 S,2R,4R,5S)-4-isopropyl-5-methoxy-l-methyl-2-((2-methylbenzyl)oxy)-7-oxabicyclo[2.2.1]heptane]
≥ 80%: weed inhibition rate [1] | weed inhibition rate [2] | inhibition at 1200 g/ha [3] | inhibition at 1200 g/ha [4] | inhibition at 75 g/ha [5] | inhibition at 75 g/ha [6] | inhibition at 75 g/ha [7] | inhibition at 75 g/ha [9] | inhibition at 75 g/ha [10]

CC(C)[C@]12C[C@@H](OCc3ccccc3F)[C@](C)(C[C@@H]1O)O2 [1-30, (1R,2S,4S,5R)-5-((2-fluorobenzyl)oxy)-1-isopropyl-4-methyl-7-oxabicyclo[2.2.1]heptan-2-ol]
≥ 80%: pest or weed control at 1200 g/ha [1] | pest or weed control at 1200 g/ha [2] | inhibition at 1200 g/ha [3] | inhibition at 1200 g/ha [4] | inhibition at 75 g/ha [5] | inhibition at 75 g/ha [6] | inhibition at 75 g/ha [7] | inhibition at 75 g/ha [9] | inhibition at 75 g/ha [10]
